Source: BindingDB's records for patent US12479845 (Hanmi Pharm. Co., 2025)

Molecular target: Lysine-specific histone demethylase 1A (Homo sapiens, UniProt O60341)
Assay: Biochemical Analysis of LSD1 Histone Demethylase Inhibitor
Procedure: The biochemical inhibition activity of the synthesized compounds on LSD1 was measured. The activity measurement was performed using LSD1 fluorescence analysis kit (available from BPS Bioscience Co., Ltd., Catalog No: 50106). This analysis kit is designed to measure activity of LSD1 enzyme. H2O2 generated upon demethylation of Lys4 moiety of histone H3 by LSD1 is reacted with HRP/Amplex Red reagent to form fluorescent Resorufin, which is measured by this kit, thereby confirming demethylation.

IC50: 27 nM
SMILES: CCN(CC)c1ccc(-n2c(-c3ccc(C#N)c(F)c3)nc3c(N4CCC[C@@H](N)C4)ccnc32)cc1 [US12479845, Example 21]
